According to US9173935B2, “Phospholipid drug analogs” (Telormedix SA, priority 2010, dated 2015):
Where two headings read alike, the source gives them in different places.

Experiments:
[1] = system: human PBMCs; assay: IL-6 secretion in human PBMCs, two batches of Compound A and SC12; format: cell-based; settings: Homo sapiens, PBMC, 24 h
Protocol: PBMCs were purified from two donors and plated into 96 well plates at 2×10^5 cells/well in RPMI media including human 2% heat inactivated AB serum, glutamine, Pen-strep and R-mercapto-ethanol. The cells were treated with TLR7 agonists for 24 h in 4 doses. The conditioned media was removed for ELISA analyses for IL-6, and the EC50 value determined for each compound and each batch.
All compounds were tested in four concentrations (10-1-0.1-0.01 micromolar).
Concentrations of IL-6 were determined by ELISA from R&D Systems using the Microsoft Excel software. The results were analyzed in Graph Pad Prism in order to prepare dose-response curves, and for determination of EC50 values.

[2] = system: Raw264.7 mouse macrophage cell line; assay: IL-6 and TNF-alpha secretion in Raw264.7 cells (ELISA); format: cell-based; settings: Mus musculus, RAW264.7, 24 hours treatment, 7 doses
Protocol: EC50 values were determined for control and each drug candidate for IL-6 and TNF-alpha secretion. […] The cells were plated in 96 well plates and treated with TLR7 agonists for 24 hours in 7 doses. The conditioned media was removed after 24 hours for ELISA analyses. The cells were subsequently assayed for viability using the XTT assay according to the guidelines from the supplier. […] The experiment was performed in quadruplicate wells for each testing series, and the supernatant pooled and measured by ELISA in triplicates. Concentrations of IL-6 and TNF-alpha were determined by ELISA from R&D Systems using the Microsoft Excel Software. The results were analyzed in Graph Pad Prism in order to prepare dose-response curves, and for determination of EC50 values.

[3] = system: HLA-DR+/CD20+ B cells; assay: FACS analysis of B cell activation (CD40) in whole blood; format: cell-based, human; settings: 24 hours, 2 and 10 uM, three donors
Protocol: (§1) A flow cytometric analysis was performed on whole blood from three donors after treatment with two compound concentrations for 24 h. The FACS analysis for donor 1 and donor 2 was made on another day than donor 3. The compound concentrations were as follows:
B cell activation: 2 and 10 uM
(§2) The FACS analysis was used to identify whether the test compounds could induce activation of B cells, and two different subsets of dendritic cells, namely the myeloid CD11c+/CD123− DCs and the plasmacytoid CD11c−/CD123+ DCs. The following markers were studied to identify the activation status of the different subsets:
(§3) The FACS staining was performed according to the manufacturer's instructions. Lysis of red blood cells was performed before FACS staining in order to minimize auto-florescence. To include as many B cells and DCs in the study as possible the FACS analyses were performed on 500,000 cells in total for each staining. A P1 gate was set only to include relevant cells on FSC vs. SSC (see FIGS. 12-15). The results of the individual analysis were present as Mean Fluorescence Intensity
The analysis of expression of the activation marker CD40 on B cells was made on double positive HLA-DR (MHC class II) (P4 gate) and CD20 cells (B cell marker) (P8 gate).

[4] = system: receptors associated with pain-related syndromes (e.g. adenosine and sodium channel); assay: Radioligand binding assay among 73 primary molecular targets; settings: SC12 at fixed concentration of 30 microM
[5] = system: AY-27 rat bladder cancer cell-line
[6] = system: HLA-DR+/CD11c+/CD123- mDCs; assay: FACS analysis of myeloid DC activation in whole blood; format: cell-based, human; settings: 24 hours, 0.1 and 0.5 uM, three donors
Protocol: as §1, §2, §3
The analysis of myeloid DCs was based on HLA-DR+/CD11c+/CD123-cells, thus all analyzed cells was included in the HLA-DR+ (P3) gate and CD11c+/CD123− (Q4) gate (see gates in FIGS. 13-15).

[7] = system: whole blood; assay: Cytokine secretion in human whole blood assay (ELISA); format: cell-based
Protocol: A volume of approximately 55 mL fresh whole blood was drawn in heparinized Vacutainers from three healthy adult anonymous volunteers as described (J. A. Ida, Journal of Immunol Methods, 310, 2006, 86-99). […] Before drawing the blood, the compounds were added to 96 well round bottom plates in a 10× diluted sample at 20 ul. The compounds were diluted in RPMI media without serum but with antibiotics. Antibiotics were added at a 10× concentration. After drawing the blood, the whole blood sample was gently mixed to obtain a homogeneous sample, and 180 ul was added to each well.
After 6 hours and 24 hours incubation, plasma was removed for ELISA (IL-6, IL-10, IL-12p40 and IFN-alpha). ELISA was made at the 6 and 24 hours time point for all concentrations. After 24 hours incubation with selected compound concentrations, cells were analyzed for activation markers by FACS.
All compounds were setup in concentrations at 0-0.01-0.03-0.1-0.5-2.0-10.0 micromolar as the final concentration. Vehicle control was DMSO control, where we used the highest concentration used for the compounds. After addition of blood, all plates were gently agitated at 37° C. and 5% CO2 until harvest. The samples were removed after 6 or 24 hours incubation, and pooled into appropriate tubes (2 ml).
Concentrations of cytokines were determined by ELISA from R&D Systems. The results were analyzed in Graph Pad Prism in order to prepare dose-response
curves, and for determination of EC50 values. FACS analysis was made by using Becton-Dickinson FACSDiva software and subsequently illustrated in Graph Pad Prism.

[8] = system: PBMCs; assay: IL-6 and TNF-alpha secretion in PBMCs from three donors (ELISA); format: cell-based, human; settings: Homo sapiens, PBMC
Protocol: EC50 values were determined for control and each drug candidate for IL-6 and TNF-alpha secretion. […] The cells were treated with TLR7 agonists for 24 hours in 7 doses. The conditioned media was removed for ELISA analyses for IL-6 and TNF-alpha, and cell survival determined by the XTT method according to the protocol from the supplier. […] Concentrations of IL-6 and TNF-alpha were determined by ELISA from R&D Systems using the Microsoft Excel Software. The results were analyzed in Graph Pad Prism in order to prepare dose-response curves, and for determination of EC50 values.

[9] = target: CYP2E1 (Homo sapiens (Human), UniProt P05181); assay: Fluorescent High Throughput P450 assay, CYP2E1; format: biochemical; settings: substrate MFC; read-out: CYP2E1 IC50 (Mean ± S.D.)
Chain of CYP2E1 (P05181 whole entry, looked up): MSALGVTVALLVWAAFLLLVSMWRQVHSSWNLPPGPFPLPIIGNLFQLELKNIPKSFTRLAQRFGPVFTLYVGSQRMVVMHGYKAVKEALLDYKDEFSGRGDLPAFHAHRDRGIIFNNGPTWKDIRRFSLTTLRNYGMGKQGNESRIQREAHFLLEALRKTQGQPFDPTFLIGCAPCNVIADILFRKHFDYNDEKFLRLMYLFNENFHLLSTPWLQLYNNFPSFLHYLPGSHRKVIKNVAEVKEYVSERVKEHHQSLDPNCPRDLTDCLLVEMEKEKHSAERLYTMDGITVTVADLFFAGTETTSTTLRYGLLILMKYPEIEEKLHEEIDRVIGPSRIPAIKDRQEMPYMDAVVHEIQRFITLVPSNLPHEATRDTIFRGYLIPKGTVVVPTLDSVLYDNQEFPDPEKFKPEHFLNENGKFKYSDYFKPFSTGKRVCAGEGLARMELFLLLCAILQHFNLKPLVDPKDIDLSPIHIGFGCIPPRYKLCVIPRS
Protocol: Inhibition of the P450 isoforms was measured in specific assays using specific substrates that become fluorescent upon CYP metabolism. Compounds, dissolved in ACN (acetonitrile) (CYP2E1, CYP2C8, CYP2B6, CYP3A5) or DMSO (all remaining isoforms), were tested in duplicate (n=2) in concentration-response curves (eight concentrations) in a 96-well plate containing incubation/NADPH regenerating buffer. Specific isoenzymes and substrates were added and incubated at 37° C. Reactions were terminated at different times, depending on the assays, and plates read on a Fluoroskan Ascent at the appropriate emission/excitation wavelengths. Concentration-response curves performed in duplicate for known inhibitors for each isoenzyme were tested in every assay as positive control.

[10] = day 12, group 1 Imiquimod 0.1%, group 2 SC12 0.38%

CC(C)Cn1cnc2c(N)nc3ccccc3c21 [Imiquimod, reference compound]
EC50 ([1]; Donor 1, 4 doses): 18 µM
EC50 ([1]; Donor 2, 4 doses): 18.4 µM
EC50 ([2]; read-out: EC 50 IL 6): 2 µM
EC50 ([2]; read-out: EC 50 TNF-alpha): 2.16 µM
CD40 expression (MFI) on B cells [3]: increased expression in all three donors
Binding to receptors associated with pain-related syndromes [4]: shown to bind
Number of rats with a tumor positive bladder ([5]; day 12): 9 of 14
Rats with pT2 Tumor, number (% of 14) [5, 10]: 9 (64.3%)
Tumor free rats, number (% of 14) [5, 10]: 5 (35.7%)
Mean weight of the rat bladders ([5]; day 12, intravesical 0.5 ml on day 2 and 5, group 1 Imiquimod 0.1%, group 2 SC12 0.38%): 0.1201 grams
Mean number of tumors per rat bladder ([5]; group 1 Imiquimod 0.1%, group 2 SC12 0.38%): 1.71
Signs of toxicity ([5]; intravesical instillation day 2 and 5): No signs of toxicity
Mean invasion depth ([5]; tumor positive bladders, group 1 Imiquimod 0.1%, group 2 SC12 0.38%): 1.3333 mm
CCR7 expression on mDCs [6]: showed high CCR7 expression
CD80 expression on mDCs [6]: weak expression of CD80 in donor 1 and 2
IL-6 secretion induced ([7]; 6 h incubation, up to 10.0 micromolar): low and insignificant amounts of IL-6
IFN-alpha secretion induced ([7]; 6 hours incubation): did not induce IFN-alpha secretion
IL-10 production ([7]; 6 hours incubation): no IL-10 production was seen
IL-12p40 secretion induced ([7]; 6 hours incubation): did not induce IL-12p40 secretion
IL-12p40 secretion induced ([7]; 24 hours incubation): did not induce IL-12p40
EC50 ([8]; 24 h, Donor 1, 24 hours, read-out: IL-6 secretion MC50): 6.35 µM
EC50 ([8]; 24 h, Donor 1, 24 hours, read-out: TNFa secretion MC50): 3.07 µM
EC50 ([8]; 24 h, Donor 2, 24 hours, read-out: IL-6 secretion MC50): 1.99 µM
EC50 ([8]; 24 h, Donor 2, 24 hours, read-out: TNFa secretion MC50): 24.9 µM
EC50 ([8]; 24 h, Donor 3, 24 hours, read-out: IL-6 secretion MC50): 4.64 µM
EC50 ([8]; 24 h, Donor 3, 24 hours, read-out: TNFa secretion MC50): 22.4 µM
EC50 ([8]; D1, first experiments on three donors, read-out: EC50 values, IL-6 secretion): 6.35 µM
EC50 ([8]; D2, first experiments on three donors, read-out: EC50 values, IL-6 secretion): 1.99 µM
EC50 ([8]; D3, first experiments on three donors, read-out: EC50 values, IL-6 secretion): 4.64 µM
EC50 ([8]; average of three donors, read-out: IL-6 secretion Average EC50): 4.33 µM
EC50 ([8]; average of three donors, read-out: TNFa secretion Average EC50): 16.8 µM

CCN(CC)C(=S)S [DDTC, reference compound]
IC50 [9]: 0.85 ± 0.01 µM
